pEC50: −log10 of the molar value. Like-named read-outs stand apart in the source and are kept apart here. Numbered stars: 1 amine (or outer) side, 2 acyl side, 3 side chain; on linkers, the order of the positions; unused ones are H or OH. Side chains are listed from the residue outwards. Peptide text beside a SMILES is read from it. * marks the point of attachment. γGlu = O=C(O)[C@H](CCC(=O)[*:2])N[*:1]; Palmitoyl = CCCCCCCCCCCCCCCC(=O)*
Columns and labels:
Human GlucR = molecular target: T1, Human GlucR (Homo sapiens, UniProt P47871); experiment: cAMP activity assay in assay medium (assay 1); assay type: cell-based; details: assay medium
T1 construct: expressed in transfected cells
T1 sequence (P47871 26-477): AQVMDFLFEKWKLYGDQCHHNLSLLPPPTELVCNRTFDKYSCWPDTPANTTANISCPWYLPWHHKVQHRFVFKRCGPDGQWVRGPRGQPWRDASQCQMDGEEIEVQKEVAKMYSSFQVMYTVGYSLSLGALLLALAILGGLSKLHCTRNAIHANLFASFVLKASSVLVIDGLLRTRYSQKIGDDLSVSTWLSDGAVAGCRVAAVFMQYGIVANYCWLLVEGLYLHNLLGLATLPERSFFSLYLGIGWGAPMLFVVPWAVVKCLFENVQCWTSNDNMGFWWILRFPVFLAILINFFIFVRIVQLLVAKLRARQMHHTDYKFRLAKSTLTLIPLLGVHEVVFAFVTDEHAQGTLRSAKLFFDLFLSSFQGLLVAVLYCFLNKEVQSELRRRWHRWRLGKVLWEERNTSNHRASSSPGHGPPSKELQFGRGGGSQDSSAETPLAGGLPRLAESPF
Source text: (§1) Biological Activity of Peptides in Cell-Based cAMP Activity Assay (Assay 1):
(§2) All sample dilutions were made in duplicate.

Human GLP1R = Human GLP1R (Homo sapiens, UniProt P43220); experiment: cAMP activity assay in assay medium (assay 1); assay type: cell-based; design: expressed in transfected cells; details: assay medium
Human GLP1R, sequence (P43220 24-463): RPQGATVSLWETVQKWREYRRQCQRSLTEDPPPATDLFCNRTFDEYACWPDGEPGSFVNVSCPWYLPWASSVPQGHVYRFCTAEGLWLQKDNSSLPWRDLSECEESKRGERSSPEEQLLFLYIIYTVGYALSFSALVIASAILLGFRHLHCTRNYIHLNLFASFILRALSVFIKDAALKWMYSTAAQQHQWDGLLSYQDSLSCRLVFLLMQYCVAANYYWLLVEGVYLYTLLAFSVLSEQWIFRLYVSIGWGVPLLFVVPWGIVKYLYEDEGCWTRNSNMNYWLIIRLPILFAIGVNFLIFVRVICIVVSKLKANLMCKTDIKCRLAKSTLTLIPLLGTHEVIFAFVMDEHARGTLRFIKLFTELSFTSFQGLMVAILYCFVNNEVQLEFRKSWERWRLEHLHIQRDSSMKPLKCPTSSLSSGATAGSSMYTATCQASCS
Source text: as §1, §2

| pEC50 (Human GlucR; Table 3, C-terminal acid peptides, read-out: Human GlucR EC50) | pEC50 (Human GLP1R; Table 3, C-terminal acid peptides, read-out: Human GLP1R EC50) | pEC50 (Human GLP1R; Table 4, read-out: hGLP1R EC50) | pEC50 (Human GlucR; Table 4, read-out: hGlucR EC50) | Structure (SMILES) |
| --- | --- | --- | --- | --- |
|  |  | 8.13 | 8.42 | CCCCCCCCCCCCCCCC(=O)N[C@@H](CCC(=O)NCCCC[C@H](NC(=O)[C@H](CO)NC(=O)[C@H](Cc1ccc(O)cc1)NC(=O)[C@H](CC(=O)O)NC(=O)[C@H](CO)NC(=O)[C@@H](NC(=O)[C@H](Cc1ccccc1)NC(=O)[C@@H](NC(=O)CNC(=O)[C@H](CCC(N)=O)NC(=O)CNC(=O)[C@@H](N)Cc1c[nH]cn1)[C@@H](C)O)[C@@H](C)O)C(=O)N[C@@H](Cc1ccc(O)cc1)C(=O)N[C@@H](CC(C)C)C(=O)N[C@@H](CC(=O)O)C(=O)N[C@@H](CO)C(=O)N[C@@H](CCC(=O)O)C(=O)N[C@@H](CCCNC(=N)N)C(=O)N[C@@H](C)C(=O)N[C@@H](CCC(N)=O)C(=O)N[C@@H](CC(=O)O)C(=O)N[C@@H](Cc1ccccc1)C(=O)N[C@H](C(=O)N[C@@H](CCC(N)=O)C(=O)N[C@@H](Cc1c[nH]c2ccccc12)C(=O)N[C@@H](CC(C)C)C(=O)N[C@@H](CCC(=O)O)C(=O)N[C@@H](CCCNC(=N)N)C(=O)NCC(=O)NCC(N)=O)C(C)C)C(=O)O [g701] (H-HGQGTFTSDYSK([γGlu-Palmitoyl])YLDSERAQDFVQWLERGG-NH2; N-terminus assumed) |
|  |  | 8.47 | 8.83 | CCCCCCCCCCCCCCCC(=O)N[C@@H](CCC(=O)NCCCC[C@H](NC(=O)[C@H](CO)NC(=O)[C@H](Cc1ccc(O)cc1)NC(=O)[C@H](CC(=O)O)NC(=O)[C@H](CO)NC(=O)[C@@H](NC(=O)[C@H](Cc1ccccc1)NC(=O)[C@@H](NC(=O)CNC(=O)[C@H](CCC(N)=O)NC(=O)[C@H](CO)NC(=O)[C@@H](N)Cc1c[nH]cn1)[C@@H](C)O)[C@@H](C)O)C(=O)N[C@@H](Cc1ccc(O)cc1)C(=O)N[C@@H](CC(C)C)C(=O)N[C@@H](CC(=O)O)C(=O)N[C@@H](CO)C(=O)N[C@@H](CCC(=O)O)C(=O)N[C@@H](CCCNC(=N)N)C(=O)N[C@@H](C)C(=O)N[C@@H](CCC(N)=O)C(=O)N[C@@H](CC(=O)O)C(=O)N[C@@H](Cc1ccccc1)C(=O)N[C@H](C(=O)N[C@@H](CCC(N)=O)C(=O)N[C@@H](Cc1c[nH]c2ccccc12)C(=O)N[C@@H](CC(C)C)C(=O)N[C@H](C(=O)N[C@@H](C)C(=O)NCC(=O)NCC(N)=O)C(C)C)C(C)C)C(=O)O [g702] (H-HSQGTFTSDYSK([γGlu-Palmitoyl])YLDSERAQDFVQWLVAGG-NH2; N-terminus assumed) |
|  |  | 10.27 | 9.45 | CCCCCCCCCCCCCCCC(=O)N[C@@H](CCC(=O)NCCCC[C@H](NC(=O)[C@H](CO)NC(=O)[C@H](CC(=O)O)NC(=O)[C@H](CC(C)C)NC(=O)[C@H](Cc1ccc(O)cc1)NC(=O)[C@H](CCCNC(=N)N)NC(=O)[C@H](CO)NC(=O)[C@H](Cc1ccc(O)cc1)NC(=O)[C@H](CC(=O)O)NC(=O)[C@H](CO)NC(=O)[C@@H](NC(=O)[C@H](Cc1ccccc1)NC(=O)[C@@H](NC(=O)CNC(=O)[C@H](CCC(N)=O)NC(=O)CNC(=O)[C@@H](N)Cc1c[nH]cn1)[C@@H](C)O)[C@@H](C)O)C(=O)N[C@@H](CCCNC(=N)N)C(=O)N[C@@H](C)C(=O)N[C@@H](CCCNC(=N)N)C(=O)N[C@@H](CC(=O)O)C(=O)N[C@@H](Cc1ccccc1)C(=O)N[C@H](C(=O)N[C@@H](CCC(=O)O)C(=O)N[C@@H](Cc1c[nH]c2ccccc12)C(=O)N[C@@H](CC(C)C)C(=O)N[C@H](C(=O)N[C@@H](C)C(=O)NCC(=O)NCC(N)=O)C(C)C)C(C)C)C(=O)O [g720] (H-HGQGTFTSDYSRYLDSK([γGlu-Palmitoyl])RARDFVEWLVAGG-NH2; N-terminus assumed) |

The remaining lines, values behind:

| Structure (SMILES) | pEC50 (Human GlucR; Table 3, C-terminal acid peptides, read-out: Human GlucR EC50) | pEC50 (Human GLP1R; Table 3, C-terminal acid peptides, read-out: Human GLP1R EC50) | pEC50 (Human GLP1R; Table 4, read-out: hGLP1R EC50) | pEC50 (Human GlucR; Table 4, read-out: hGlucR EC50) |
| --- | --- | --- | --- | --- |
| CCCCCCCCCCCCCCCC(=O)N[C@@H](CCC(=O)NCCCC[C@H](NC(=O)[C@H](CCCCN)NC(=O)[C@H](CO)NC(=O)[C@H](Cc1ccc(O)cc1)NC(=O)[C@H](CC(=O)O)NC(=O)[C@H](CO)NC(=O)[C@@H](NC(=O)[C@H](Cc1ccccc1)NC(=O)[C@@H](NC(=O)CNC(=O)[C@H](CCC(N)=O)NC(=O)[C@H](CO)NC(=O)[C@@H](N)Cc1c[nH]cn1)[C@@H](C)O)[C@@H](C)O)C(=O)N[C@@H](CC(C)C)C(=O)N[C@@H](CC(=O)O)C(=O)N[C@@H](CO)C(=O)N[C@@H](CCC(=O)O)C(=O)N[C@@H](CCCNC(=N)N)C(=O)N[C@@H](C)C(=O)N[C@@H](CCCNC(=N)N)C(=O)N[C@@H](CC(=O)O)C(=O)N[C@@H](Cc1ccccc1)C(=O)N[C@H](C(=O)N[C@@H](C)C(=O)N[C@@H](Cc1c[nH]c2ccccc12)C(=O)N[C@@H](CC(C)C)C(=O)N[C@H](C(=O)N[C@@H](C)C(=O)NCC(=O)NCC(=O)O)C(C)C)C(C)C)C(=O)O [Peptide G931] (H-HSQGTFTSDYSKK([γGlu-Palmitoyl])LDSERARDFVAWLVAGG-OH; N-terminus assumed) | 10.75 | 9.89 |  |  |
| CC(C)C[C@H](NC(=O)[C@H](Cc1ccc(O)cc1)NC(=O)[C@H](CCCCN)NC(=O)[C@H](CO)NC(=O)[C@H](Cc1ccc(O)cc1)NC(=O)[C@H](CC(=O)O)NC(=O)[C@H](CO)NC(=O)[C@@H](NC(=O)[C@H](Cc1ccccc1)NC(=O)[C@@H](NC(=O)CNC(=O)[C@H](CCC(N)=O)NC(=O)[C@H](CO)NC(=O)[C@@H](N)Cc1c[nH]cn1)[C@@H](C)O)[C@@H](C)O)C(=O)N[C@@H](CC(=O)O)C(=O)N[C@@H](CO)C(=O)N[C@@H](CCCNC(=N)N)C(=O)N[C@@H](CCCNC(=N)N)C(=O)N[C@@H](C)C(=O)N[C@@H](CCC(N)=O)C(=O)N[C@@H](CC(=O)O)C(=O)N[C@@H](Cc1ccccc1)C(=O)N[C@H](C(=O)N[C@@H](CCC(N)=O)C(=O)N[C@@H](Cc1c[nH]c2ccccc12)C(=O)N[C@@H](CC(C)C)C(=O)N[C@H](C(=O)N[C@@H](CCCNC(=N)N)C(=O)NCC(=O)NCC(=O)N[C@@H](CO)C(=O)N[C@@H](CO)C(=O)NCC(=O)NCC(=O)N[C@@H](CO)C(=O)N[C@@H](CO)C(=O)N[C@@H](CCCCN)C(N)=O)C(C)C)C(C)C [g317] |  |  | 8.58 |  |
| CCCCCCCCCCCCCCCC(=O)NCCCC[C@H](NC(=O)[C@H](CO)NC(=O)[C@H](CO)NC(=O)CNC(=O)CNC(=O)[C@H](CO)NC(=O)[C@H](CO)NC(=O)CNC(=O)CNC(=O)[C@H](CCCNC(=N)N)NC(=O)[C@@H](NC(=O)[C@H](CC(C)C)NC(=O)[C@H](Cc1c[nH]c2ccccc12)NC(=O)[C@H](CCC(N)=O)NC(=O)[C@@H](NC(=O)[C@H](Cc1ccccc1)NC(=O)[C@H](CC(=O)O)NC(=O)[C@H](CCC(N)=O)NC(=O)[C@H](C)NC(=O)[C@H](CCCNC(=N)N)NC(=O)[C@H](CCCNC(=N)N)NC(=O)[C@H](CO)NC(=O)[C@H](CC(=O)O)NC(=O)[C@H](CC(C)C)NC(=O)[C@H](Cc1ccc(O)cc1)NC(=O)[C@H](CCCCN)NC(=O)[C@H](CO)NC(=O)[C@H](Cc1ccc(O)cc1)NC(=O)[C@H](CC(=O)O)NC(=O)[C@H](CO)NC(=O)[C@@H](NC(=O)[C@H](Cc1ccccc1)NC(=O)[C@@H](NC(=O)CNC(=O)[C@H](CCC(N)=O)NC(=O)[C@H](CO)NC(=O)[C@@H](N)Cc1c[nH]cn1)[C@@H](C)O)[C@@H](C)O)C(C)C)C(C)C)C(N)=O [g318] |  |  | 8.94 | 8.04 |
| CC(C)C[C@H](NC(=O)[C@H](Cc1ccc(O)cc1)NC(=O)[C@H](CCCCN)NC(=O)[C@H](CO)NC(=O)[C@H](Cc1ccc(O)cc1)NC(=O)[C@H](CC(=O)O)NC(=O)[C@H](CO)NC(=O)[C@@H](NC(=O)[C@H](Cc1ccccc1)NC(=O)[C@@H](NC(=O)CNC(=O)[C@H](CCC(N)=O)NC(=O)[C@H](CO)NC(=O)[C@@H](N)Cc1c[nH]cn1)[C@@H](C)O)[C@@H](C)O)C(=O)N[C@@H](CC(=O)O)C(=O)N[C@@H](CO)C(=O)N[C@@H](CCCNC(=N)N)C(=O)N[C@@H](CCCNC(=N)N)C(=O)N[C@@H](C)C(=O)N[C@@H](CCC(N)=O)C(=O)N[C@@H](CC(=O)O)C(=O)N[C@@H](Cc1ccccc1)C(=O)N[C@H](C(=O)N[C@@H](CCC(N)=O)C(=O)N[C@@H](Cc1c[nH]c2ccccc12)C(=O)N[C@@H](CC(C)C)C(=O)N[C@H](C(=O)N[C@@H](CCCNC(=N)N)C(=O)NCC(=O)NCC(=O)NCC(=O)NCC(=O)NCC(=O)NCC(=O)N[C@@H](CCCCN)C(N)=O)C(C)C)C(C)C [g325] |  |  |  | 10.99 |
| CC(C)C[C@H](NC(=O)[C@H](Cc1ccc(O)cc1)NC(=O)[C@H](CCCCN)NC(=O)[C@H](CO)NC(=O)[C@H](Cc1ccc(O)cc1)NC(=O)[C@H](CC(=O)O)NC(=O)[C@H](CO)NC(=O)[C@@H](NC(=O)[C@H](Cc1ccccc1)NC(=O)[C@@H](NC(=O)CNC(=O)[C@H](CCC(N)=O)NC(=O)[C@H](CO)NC(=O)[C@@H](N)Cc1c[nH]cn1)[C@@H](C)O)[C@@H](C)O)C(=O)N[C@@H](CC(=O)O)C(=O)N[C@@H](CO)C(=O)N[C@@H](CCCNC(=N)N)C(=O)N[C@@H](CCCNC(=N)N)C(=O)N[C@@H](C)C(=O)N[C@@H](CCC(N)=O)C(=O)N[C@@H](CC(=O)O)C(=O)N[C@@H](Cc1ccccc1)C(=O)N[C@H](C(=O)N[C@@H](CCC(N)=O)C(=O)N[C@@H](Cc1c[nH]c2ccccc12)C(=O)N[C@@H](CC(C)C)C(=O)N[C@H](C(=O)N[C@@H](CCCNC(=N)N)C(=O)NCC(=O)NCC(=O)N[C@@H](CO)C(=O)NCC(=O)N[C@@H](CO)C(=O)NCC(=O)N[C@@H](CO)C(=O)NCC(N)=O)C(C)C)C(C)C [g402] |  |  | 10.07 | 10.22 |
| CCCCCCCCCCCCCCCC(=O)NCCCCCC(=O)NCCCC[C@H](NC(=O)[C@H](CO)NC(=O)[C@H](CC(=O)O)NC(=O)[C@H](CC(C)C)NC(=O)[C@H](Cc1ccc(O)cc1)NC(=O)[C@H](CCC(=O)O)NC(=O)[C@H](CO)NC(=O)[C@H](Cc1ccc(O)cc1)NC(=O)[C@H](CC(=O)O)NC(=O)[C@H](CO)NC(=O)[C@@H](NC(=O)[C@H](Cc1ccccc1)NC(=O)[C@@H](NC(=O)CNC(=O)[C@H](CCC(N)=O)NC(=O)CNC(=O)[C@@H](N)Cc1c[nH]cn1)[C@@H](C)O)[C@@H](C)O)C(=O)N[C@@H](CCCNC(=N)N)C(=O)N[C@@H](C)C(=O)N[C@@H](CCCNC(=N)N)C(=O)N[C@@H](CC(=O)O)C(=O)N[C@@H](Cc1ccccc1)C(=O)N[C@H](C(=O)N[C@@H](CCC(=O)O)C(=O)N[C@@H](Cc1c[nH]c2ccccc12)C(=O)N[C@@H](CC(C)C)C(=O)N[C@@H](CCC(=O)O)C(=O)N[C@@H](CCCNC(=N)N)C(=O)NCC(=O)NCC(N)=O)C(C)C [g682] |  |  | 10.84 | 9.71 |
